Experimental data: ChEMBL document CHEMBL5154712, “Activators of the Anticipatory Unfolded Protein Response with Enhanced Selectivity for Estrogen Receptor Positive Breast Cancer” (J Med Chem, 2022)
Blank lines part the entries; values can stand above or below the compound they belong to. Activity calls are given as the source filed them. The calls are words filed in the database; no cut-off is given here.

How the values were obtained:
[1] = test system: MCF7; test: Anticancer activity against ERalpha positive human MCF7 cells assessed as cell growth inhibition incubated for 72 hrs by alamar blue assay; format: functional, cell-based; settings: MCF7, 72 h
[2] = test system: MCF7; test: Anticancer activity against human MCF7 cells assessed as reduction in cell viability incubated for 24 hrs in presence of 10% CD-FBS by alamar blue assay; format: functional, cell-based
[3] = test system: MCF7; test: Anticancer activity against human MCF7 cells assessed as cell growth inhibition incubated for 24 hrs by alamar blue assay; format: functional, cell-based; settings: MCF7, 24 h
[4] = test system: HCT-116; test: Anticancer activity against ERalpha negative human HCT-116 cells assessed as cell growth inhibition incubated for 72 hrs by alamar blue assay; format: functional, cell-based; settings: HCT-116, 72 h
[5] = test system: HT-29; test: Anticancer activity against ERalpha negative human HT-29 cells assessed as cell growth inhibition incubated for 24 hrs by alamar blue assay; format: functional, cell-based; settings: HT-29, 24 h
[6] = test system: HT-29; test: Anticancer activity against ERalpha negative human HT-29 cells assessed as cell growth inhibition incubated for 72 hrs by alamar blue assay; format: functional, cell-based; settings: HT-29, 72 h
[7] = Stability of the compound in simulated gastric fluid assessed as compound remaining measured after 120 mins by LC-MS/MS; format: ADME; settings: read-out: Stability
[8] = test system: MDA-MB-231; test: Anticancer activity against ERalpha negative human MDA-MB-231 cells assessed as cell growth inhibition incubated for 72 hrs by alamar blue assay; format: functional, cell-based; settings: MDA-MB-231, 72 h
[9] = Selectivity ratio of IC50 for human MDA-MB-231 cells to IC50 for human MCF7 cells; format: functional
[10] = Selectivity ratio of IC50 for human HCT-116 cells to IC50 for human MCF7 cells; format: functional
[11] = test system: MDA-MB-231; test: Anticancer activity against ERalpha negative human MDA-MB-231 cells assessed as cell growth inhibition incubated for 24 hrs by alamar blue assay; format: functional, cell-based; settings: MDA-MB-231, 24 h
[12] = test system: HCT-116; test: Anticancer activity against ERalpha negative human HCT-116 cells assessed as cell growth inhibition incubated for 24 hrs by alamar blue assay; format: functional, cell-based; settings: HCT-116, 24 h
[13] = Selectivity ratio of IC50 for human HT-29 cells to IC50 for human MCF7 cells; format: functional
[14] = test system: MDA-MB-436; test: Anticancer activity against ERalpha negative human MDA-MB-436 cells assessed as cell growth inhibition incubated for 24 hrs by alamar blue assay; format: functional, cell-based; settings: MDA-MB-436, 24 h
[15] = test system: T47D; test: Anticancer activity against ERalpha positive human T47D cells assessed as cell growth inhibition incubated for 24 hrs by alamar blue assay; format: functional, cell-based
[16] = Toxicity in athymic nude mouse xenografted with human MCF7 cells assessed as change in body weight at 5 mg/kg, iv administered once a week for three doses administered for 14 days; format: organism-based; settings: in vivo, 336 h, time 14 day
[17] = test system: MCF7; test: Antitumor activity against human MCF7 cells xenografted in athymic nude mouse assessed as reduction in tumor growth at 5 mg/kg, iv administered once a week for three doses administered for 14 days; format: functional, organism-based; settings: time 14.0 day
[18] = test system: MCF7; test: Anticancer activity against human MCF7 cells assessed as reduction in cell viability incubated for 24 hrs in presence of 10% CD-FBS and 17-beta-estradiol by alamar blue assay; format: functional, cell-based
[19] = test system: MDA-MB-231; test: Anticancer activity against ERalpha negative human MDA-MB-231 cells assessed as cell growth inhibition incubated for 168 hrs by alamar blue assay; format: functional, cell-based; settings: MDA-MB-231, 168 h
[20] = Half life in CD-1 mouse at 20 mg/kg, iv by LC-MS/MS analysis; format: ADME, organism-based; settings: CD-1, mouse, in vivo
[21] = Selectivity ratio of IC50 for human MDA-MB-436 cells to IC50 for human MCF7 cells; format: functional
[22] = test system: HCT-116; test: Anticancer activity against ERalpha negative human HCT-116 cells assessed as cell growth inhibition incubated for 168 hrs by alamar blue assay; format: functional, cell-based; settings: HCT-116, 168 h
[23] = Toxicity in po dosed CD-1 mouse assessed as maximum tolerated dose administered as single dose; format: organism-based; settings: in vivo
[24] = Cmax in CD-1 mouse at 20 mg/kg, iv by LC-MS/MS analysis; format: ADME, organism-based; set-up: dose 20 mg/kg, route iv; settings: CD-1, mouse, in vivo, read-out: Cmax
[25] = Clearance in CD-1 mouse at 20 mg/kg, iv by LC-MS/MS analysis; format: ADME, organism-based; settings: in vivo
[26] = MRT in CD-1 mouse at 20 mg/kg, iv by LC-MS/MS analysis; format: ADME, organism-based; settings: CD-1, mouse, in vivo, read-out: MRT
[27] = Stability of the compound in simulated gastric fluid assessed as half life measured upto 120 mins by LC-MS/MS analysis; format: ADME
[28] = Toxicity in iv dosed Sprague-Dawley rat assessed as maximum tolerated dose administered as single dose; format: organism-based; settings: in vivo
[29] = Oral bioavailability in CD-1 mouse at 40 mg/kg by LC-MS/MS analysis; format: ADME, organism-based; settings: in vivo
[30] = test system: T47D; test: Anticancer activity against human T47D cells harbouring ERalphaD538G mutant assessed as cell growth inhibition incubated for 24 hrs by alamar blue assay; format: functional, cell-based
[31] = AUC in CD-1 mouse at 20 mg/kg, iv by LC-MS/MS analysis; format: ADME, organism-based; set-up: dose 20 mg/kg, route iv; settings: CD-1, mouse, in vivo, read-out: AUC
[32] = test system: T47D; test: Anticancer activity against human T47D cells harbouring ERalphaY537S mutant assessed as cell growth inhibition incubated for 24 hrs by alamar blue assay; format: functional, cell-based
[33] = Volume of distribution at steady state in CD-1 mouse at 20 mg/kg, iv by LC-MS/MS analysis; format: ADME, organism-based; settings: CD-1, mouse, in vivo, read-out: Vdss
[34] = Toxicity in iv dosed CD-1 mouse assessed as maximum tolerated dose administered as single dose; format: organism-based; settings: in vivo
[35] = test system: MDA-MB-436; test: Anticancer activity against ERalpha negative human MDA-MB-436 cells assessed as cell growth inhibition incubated for 72 hrs by alamar blue assay; format: functional, cell-based; settings: MDA-MB-436, 72 h

IC50 [1]: > 1000 nM | IC50 ([2]; MCF7, 24 h): > 1000 nM | IC50 [3]: > 1000 nM
Structure (SMILES): O=C1Nc2c(C(F)(F)F)cccc2[C@]1(c1ccc(O)cc1)N1CC(F)(F)C(F)(F)C1

IC50 [3]: > 1000 nM
Structure (SMILES): O=C1Nc2c(C(F)(F)F)cccc2C1(c1ccc(OC(F)(F)F)cc1)c1ccc(OC(F)(F)F)cc1

IC50 [1]: 117 nM
Structure (SMILES): O=C1Nc2c(C(F)(F)F)cccc2[C@@]1(c1ccc(O)cc1)N1CC(F)(F)C1

IC50 [3]: 33 nM
Structure (SMILES): O=C1Nc2c(C(F)(F)F)cccc2C1(c1ccc(OC(F)(F)F)cc1)c1ccc(O)c(F)c1 (stereo not given)

IC50 [4]: 15 µM | IC50 [5]: 25 µM | IC50 [6]: 15 µM | remaining at 2 h [7]: 27% | IC50 [8]: 14 µM | IC50 [1]: 4 nM | IC50 [11]: 22 µM | IC50 [12]: 24 µM | IC50 [3]: 5 nM
Structure (SMILES): O=C1Nc2c(C(F)(F)F)cccc2[C@@]1(c1ccc(O)cc1)N1CC(F)(F)C(F)(F)C1
Ratio IC50 [9]: 3500 | Ratio IC50 [10]: 3800 | Ratio IC50 [13]: 3800

IC50 [3]: 24 nM
Structure (SMILES): O=C1Nc2c(C(F)(F)F)cccc2[C@]1(c1ccc(OC(F)(F)F)cc1)c1ccc(O)c(O)c1

Structure (SMILES): O=C1Nc2c(C(F)(F)F)cccc2C1(c1ccc(O)cc1)N1CCC(F)(F)CC1 (stereo not given)
IC50 [3]: 35 nM

Structure (SMILES): O=C1Nc2c(C(F)(F)F)cccc2[C@]1(c1ccc(O)cc1)C1CCC(F)(F)CC1
IC50 [14]: 64 µM | IC50 [4]: 55 µM | IC50 [5]: 33 µM | IC50 [15]: 16 nM | Activity [16]: Non-Toxic | Activity [17]: Active | Activity [18]: Active | IC50 [6]: 27 µM | IC50 [19]: 33 µM | remaining at 2 h [7]: 13% | half-life [20]: 18 min | Ratio IC50 [21]: 3200 | IC50 [22]: 42 µM | MTD [23]: > 200 mg/kg | Cmax [24]: 14700 ng/mL | clearance [25]: 52 mL/min/kg | MRT [26]: 54 min | IC50 [8]: 55 µM | IC50 [1]: 17 nM | half-life [27]: 56 min | Ratio IC50 [9]: 1900 | Ratio IC50 [10]: 3200 | MTD [28]: > 50 mg/kg | bioavailability [29]: 6% | IC50 [30]: 9 nM | IC50 [11]: 55 µM | AUC [31]: 6300 ng·h/mL | IC50 [32]: 7 nM | Vd [33]: 2.8 L/kg | IC50 [12]: 55 µM | Ratio IC50 [13]: 1600 | Activity [2]: Active | IC50 [3]: 17 nM | MTD [34]: 95 mg/kg | IC50 [35]: 55 µM

IC50 [4]: 21 µM | IC50 [5]: 29 µM | IC50 [6]: 25 µM | remaining at 2 h [7]: 0% | IC50 [8]: 22 µM | IC50 [1]: 33 nM | IC50 [11]: 49 µM | IC50 [12]: 38 µM | IC50 [3]: 39 nM
Structure (SMILES): O=C1Nc2c(C(F)(F)F)cccc2[C@@]1(c1ccc(O)cc1)N1CCCC(F)(F)C1
Ratio IC50 [9]: 700 | Ratio IC50 [10]: 600 | Ratio IC50 [13]: 800

IC50 [3]: > 1000 nM
Structure (SMILES): CC(C)c1cc(C2(c3ccc(OC(F)(F)F)cc3)C(=O)Nc3c(C(F)(F)F)cccc32)cc(C(C)C)c1O (stereo not given)

IC50 [3]: 70 nM
Structure (SMILES): CC1CN(C2(c3ccc(O)cc3)C(=O)Nc3c(C(F)(F)F)cccc32)CCC1(F)F (stereo not given)

IC50 [3]: > 1000 nM
Structure (SMILES): Cc1cc(C2(c3ccc(OC(F)(F)F)cc3)C(=O)Nc3c(C(F)(F)F)cccc32)cc(C)c1O (stereo not given)
